Data on nine molecules can be found in patent publication US20130317073A1, “METHODS OF PEST CONTROL IN SOYBEAN” (SYNGENTA LIMITED, priority 2011, published 2013).

For the assay, the system named is Euschistus heros. Put plainly: Euschistus heros (neotropical brown stink bug) contact/feeding activity on sprayed soybean plants. The class given is in vivo. Particulars: 120 h, N-2 nymphs on sprayed 2 week old soybean plants, evaluation 5 days after infestation, average of two replicates, read-out: mortality and growth effects; for mortality at 3 ppm: Rate 3 ppm; for mortality at 6 ppm: Rate 6 ppm; for mortality at 12.5 ppm: Rate 12.5 ppm. How it is done: Euschistus heros (Neotropical Brown Stink Bug) (Contact/Feeding Activity)
2 week old soybean plants are sprayed in a turn table spray chamber with the diluted spray solutions. After drying, 2 soybean seeds are added and plants are infested with 10 N-2 nymphs of the neotropical brown stink bug Euschistus heros in plastic test boxes. Boxes are incubated in a climate chamber at 25° C. and 60% RH. Evaluation is done 5 days after infestation on mortality and growth effects. The data is an average of two replicates.

Usually mortality stands for the percentage killed. `Cc1cc(C2=NOC(c3cc(Cl)cc(Cl)c3)(C(F)(F)F)C2)ccc1C(=O)NC1CS(=O)(=O)C1` (stereo not drawn) [Compound 2]: the mortality at 3 ppm stood at 65%, the mortality at 6 ppm worked out at 95% and the mortality at 12.5 ppm was determined as 95%.
Regarding `Cc1cc(C2=NOC(c3cc(Cl)cc(Cl)c3)(C(F)(F)F)C2)ccc1C(=O)NC1(C)CSC1` (stereo not drawn) [Compound 3], the mortality at 3 ppm turned out to be 0%, the mortality at 6 ppm amounted to 20% and the mortality at 12.5 ppm was 75%.
Regarding `O=C(CNC(=O)c1ccc(C2=NOC(c3cc(Cl)cc(Cl)c3)(C(F)(F)F)C2)c2ccccc12)CC(F)(F)F` (stereo not drawn) [Compound 6], the mortality at 3 ppm was found to be 95%, the mortality at 6 ppm is 100% and the mortality at 12.5 ppm is 95%.
Consider `Cc1cc(C2=NOC(c3cc(Cl)cc(Cl)c3)(C(F)(F)F)C2)ccc1C(=O)NCC(F)(F)F` (stereo not drawn) [Compound 9], for which the mortality at 3 ppm came to 15%, the mortality at 6 ppm worked out at 75% and the mortality at 12.5 ppm stood at 70%.
The matching figures for `Cc1cc(C2=NOC(c3cc(Cl)cc(Cl)c3)(C(F)(F)F)C2)ccc1C(=O)NCC(=O)CC(F)(F)F` (stereo not drawn) [Compound 5]: 85%, 90% and 100%.
The matching figures for `Cc1cc(C2=NOC(c3cc(Cl)cc(Cl)c3)(C(F)(F)F)C2)ccc1C(=O)NC1CSC1` (stereo not drawn) [Compound 1]: 65%, 80% and 85%.
On the same counts, the results for `COC(=O)N1CC(NC(=O)c2ccc(C3=NOC(c4cc(Cl)cc(Cl)c4)(C(F)(F)F)C3)cc2C)C1` (stereo not drawn) [Compound 4] are 15%, 25% and 35%.
Turning to `O=C(CNC(=O)c1ccc(C2=NOC(c3cc(Cl)cc(Cl)c3)(C(F)(F)F)C2)cc1)CC(F)(F)F` (stereo not drawn) [Compound 7], the mortality at 3 ppm is 5%, the mortality at 6 ppm turned out to be 20% and the mortality at 12.5 ppm is 60%.
Turning to `CCCCNC(=O)c1ccc(C2=NOC(c3cc(Cl)cc(Cl)c3)(C(F)(F)F)C2)cc1C` (stereo not drawn) [Compound 8], the mortality at 3 ppm amounted to 5%, the mortality at 6 ppm was 35% and the mortality at 12.5 ppm was 95%.
